Laboratory results reported in the supplement of paper PMC12076712.

Tests used:
Assay in all cases: pIC50, kinobeads binding competition
RNASEL = RNASEL (UniProt Q05823); conditions: cell material: Jurkat cells
Method in brief: (§1)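 Jurkat cells were exposed alive to nine compound concentrations (top 30 μM, 1:4 steps) or vehicle for 60 min at 37 °C and then lysed. In a second format, nine concentrations (top 30 μM, 1:5 steps) were incubated for 60 min at 4 °C with Jurkat lysate or with a 1:1:1:1 lysate mix of HEK293, K-562, HepG2 and placenta. Proteins captured on Kinobeads were digested and quantified by TMT10 LC-MS/MS. pIC50 values were derived from logistic dose-response fits (R drc package) of fold changes relative to vehicle, in biological duplicates.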

PBK = target: T1, PBK (UniProt Q96KB5); conditions: cell material: Jurkat cells
T1 sequence (whole entry): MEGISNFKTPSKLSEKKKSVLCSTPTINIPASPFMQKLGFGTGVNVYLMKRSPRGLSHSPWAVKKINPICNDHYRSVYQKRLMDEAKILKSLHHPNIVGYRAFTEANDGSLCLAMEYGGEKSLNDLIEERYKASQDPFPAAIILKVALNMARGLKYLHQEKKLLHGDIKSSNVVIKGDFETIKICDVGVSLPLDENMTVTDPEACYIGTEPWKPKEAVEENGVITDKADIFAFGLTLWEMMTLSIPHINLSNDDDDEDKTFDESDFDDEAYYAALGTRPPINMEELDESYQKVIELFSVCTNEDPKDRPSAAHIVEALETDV
Method in brief: as §1

ZAP70 = target: T2, ZAP70 (UniProt P43403)
T2 sequence (whole entry): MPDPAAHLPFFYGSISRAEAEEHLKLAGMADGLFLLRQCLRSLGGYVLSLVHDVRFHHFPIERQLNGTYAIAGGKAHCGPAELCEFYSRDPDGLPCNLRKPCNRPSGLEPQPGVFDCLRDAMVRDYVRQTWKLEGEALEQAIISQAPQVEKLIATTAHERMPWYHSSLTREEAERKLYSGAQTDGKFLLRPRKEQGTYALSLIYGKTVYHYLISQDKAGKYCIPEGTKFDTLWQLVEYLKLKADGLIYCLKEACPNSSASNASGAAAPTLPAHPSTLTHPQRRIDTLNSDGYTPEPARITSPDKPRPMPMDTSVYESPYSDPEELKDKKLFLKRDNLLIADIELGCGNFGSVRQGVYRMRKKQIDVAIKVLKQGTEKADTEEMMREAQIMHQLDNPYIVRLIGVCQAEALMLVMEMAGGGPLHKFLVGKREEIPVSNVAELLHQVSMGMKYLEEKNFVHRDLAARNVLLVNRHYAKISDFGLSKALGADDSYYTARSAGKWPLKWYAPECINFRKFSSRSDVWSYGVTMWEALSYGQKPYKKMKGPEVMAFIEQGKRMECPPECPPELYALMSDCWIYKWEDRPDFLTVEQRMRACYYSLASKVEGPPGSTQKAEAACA
Method in brief: as §1

SRPK2 = SRPK2 (UniProt P78362)
Sequence of SRPK2 (P78362 whole entry, looked up): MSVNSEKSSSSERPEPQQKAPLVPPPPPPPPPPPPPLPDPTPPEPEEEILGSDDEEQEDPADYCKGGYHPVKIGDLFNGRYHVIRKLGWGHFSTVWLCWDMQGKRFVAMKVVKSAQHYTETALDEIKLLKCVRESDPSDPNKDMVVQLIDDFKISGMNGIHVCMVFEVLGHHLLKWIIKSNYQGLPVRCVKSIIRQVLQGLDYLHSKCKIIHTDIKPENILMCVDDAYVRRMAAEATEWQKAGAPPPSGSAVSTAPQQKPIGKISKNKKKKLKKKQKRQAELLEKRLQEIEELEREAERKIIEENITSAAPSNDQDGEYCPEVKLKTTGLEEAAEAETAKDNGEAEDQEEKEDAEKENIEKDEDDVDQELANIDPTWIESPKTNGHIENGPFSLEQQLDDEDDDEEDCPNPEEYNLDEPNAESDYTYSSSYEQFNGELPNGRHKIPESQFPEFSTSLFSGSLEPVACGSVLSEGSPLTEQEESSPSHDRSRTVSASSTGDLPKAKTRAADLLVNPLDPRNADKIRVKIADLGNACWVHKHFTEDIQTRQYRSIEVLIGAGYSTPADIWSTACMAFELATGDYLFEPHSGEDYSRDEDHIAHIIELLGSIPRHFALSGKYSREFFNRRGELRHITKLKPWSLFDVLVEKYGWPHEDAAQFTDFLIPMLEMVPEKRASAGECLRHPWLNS
Method in brief: as §1

RAF1 = RAF1 (UniProt P04049)
Sequence of RAF1 (P04049 whole entry): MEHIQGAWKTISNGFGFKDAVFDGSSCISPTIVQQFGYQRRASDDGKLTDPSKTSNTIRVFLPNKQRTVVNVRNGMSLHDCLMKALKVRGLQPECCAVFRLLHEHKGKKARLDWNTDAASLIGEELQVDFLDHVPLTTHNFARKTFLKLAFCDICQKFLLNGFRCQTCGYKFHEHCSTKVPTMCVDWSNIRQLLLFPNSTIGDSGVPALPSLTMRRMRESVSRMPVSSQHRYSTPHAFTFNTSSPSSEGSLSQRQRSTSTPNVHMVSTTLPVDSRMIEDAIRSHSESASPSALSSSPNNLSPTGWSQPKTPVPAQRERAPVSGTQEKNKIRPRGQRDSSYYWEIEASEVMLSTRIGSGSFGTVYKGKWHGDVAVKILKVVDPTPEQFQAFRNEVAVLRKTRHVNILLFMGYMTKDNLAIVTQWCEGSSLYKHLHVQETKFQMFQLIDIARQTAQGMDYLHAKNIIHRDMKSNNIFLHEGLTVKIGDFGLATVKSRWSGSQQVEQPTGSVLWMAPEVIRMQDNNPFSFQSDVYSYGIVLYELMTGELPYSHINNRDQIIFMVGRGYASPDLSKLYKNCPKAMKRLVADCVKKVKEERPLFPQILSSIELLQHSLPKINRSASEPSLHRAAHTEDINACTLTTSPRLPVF
Method in brief: as §1

UHMK1 = target: T3, UHMK1 (UniProt Q8TAS1); conditions: cell material: Jurkat lysate
T3 sequence (whole entry): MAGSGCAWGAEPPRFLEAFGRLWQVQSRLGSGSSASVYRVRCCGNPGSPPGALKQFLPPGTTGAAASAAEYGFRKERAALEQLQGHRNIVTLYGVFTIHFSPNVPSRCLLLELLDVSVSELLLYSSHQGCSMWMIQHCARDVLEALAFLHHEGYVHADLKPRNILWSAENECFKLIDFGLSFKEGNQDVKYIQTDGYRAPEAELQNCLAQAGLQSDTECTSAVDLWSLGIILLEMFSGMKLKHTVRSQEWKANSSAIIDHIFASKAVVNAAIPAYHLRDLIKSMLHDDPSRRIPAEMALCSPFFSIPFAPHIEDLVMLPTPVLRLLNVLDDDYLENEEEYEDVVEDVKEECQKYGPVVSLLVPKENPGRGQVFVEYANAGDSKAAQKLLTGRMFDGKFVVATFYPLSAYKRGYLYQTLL
Method in brief: as §1

BRSK1 = target: T4, BRSK1 (UniProt Q8TDC3)
T4 sequence (whole entry): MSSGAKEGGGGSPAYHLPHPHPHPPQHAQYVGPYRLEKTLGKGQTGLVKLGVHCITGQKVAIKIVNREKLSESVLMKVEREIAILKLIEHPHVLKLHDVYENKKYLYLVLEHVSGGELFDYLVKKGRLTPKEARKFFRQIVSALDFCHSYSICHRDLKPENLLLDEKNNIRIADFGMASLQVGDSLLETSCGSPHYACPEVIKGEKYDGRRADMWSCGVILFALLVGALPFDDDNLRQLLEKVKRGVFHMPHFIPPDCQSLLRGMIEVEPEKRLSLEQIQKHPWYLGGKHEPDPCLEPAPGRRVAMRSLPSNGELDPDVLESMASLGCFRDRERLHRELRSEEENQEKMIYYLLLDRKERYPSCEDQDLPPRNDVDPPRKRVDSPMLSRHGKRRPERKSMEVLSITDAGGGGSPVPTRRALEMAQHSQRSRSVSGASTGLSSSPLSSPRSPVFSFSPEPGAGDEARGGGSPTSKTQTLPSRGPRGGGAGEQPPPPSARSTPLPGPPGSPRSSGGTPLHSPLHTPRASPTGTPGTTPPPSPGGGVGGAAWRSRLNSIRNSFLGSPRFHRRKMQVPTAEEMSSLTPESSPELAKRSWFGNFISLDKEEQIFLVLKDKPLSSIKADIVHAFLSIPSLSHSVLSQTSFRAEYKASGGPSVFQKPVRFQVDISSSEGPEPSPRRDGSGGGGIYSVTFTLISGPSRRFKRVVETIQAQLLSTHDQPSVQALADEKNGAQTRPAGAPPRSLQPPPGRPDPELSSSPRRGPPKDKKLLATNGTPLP
Method in brief: as §1

PRKCH = PRKCH (UniProt P24723)
Sequence of PRKCH (P24723 whole entry, looked up): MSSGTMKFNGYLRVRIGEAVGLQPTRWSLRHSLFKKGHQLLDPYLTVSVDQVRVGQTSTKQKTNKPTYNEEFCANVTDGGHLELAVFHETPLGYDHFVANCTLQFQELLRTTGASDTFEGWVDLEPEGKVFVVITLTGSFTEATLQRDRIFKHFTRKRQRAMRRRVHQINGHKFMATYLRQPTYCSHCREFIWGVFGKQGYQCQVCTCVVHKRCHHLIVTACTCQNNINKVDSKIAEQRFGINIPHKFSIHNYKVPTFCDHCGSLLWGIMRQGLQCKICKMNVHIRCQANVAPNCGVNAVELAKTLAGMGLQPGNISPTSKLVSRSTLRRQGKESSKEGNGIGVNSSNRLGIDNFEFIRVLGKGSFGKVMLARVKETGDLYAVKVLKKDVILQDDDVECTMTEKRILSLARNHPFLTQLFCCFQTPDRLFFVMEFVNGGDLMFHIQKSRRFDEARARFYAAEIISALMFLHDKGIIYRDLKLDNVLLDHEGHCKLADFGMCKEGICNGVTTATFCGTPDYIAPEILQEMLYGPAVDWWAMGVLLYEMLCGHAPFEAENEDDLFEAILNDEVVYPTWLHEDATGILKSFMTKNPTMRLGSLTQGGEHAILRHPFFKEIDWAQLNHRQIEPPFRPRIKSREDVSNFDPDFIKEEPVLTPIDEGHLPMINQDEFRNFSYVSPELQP
Method in brief: as §1

MAST1 = MAST1 (UniProt Q9Y2H9); conditions: cell material: Jurkat lysate
Sequence of MAST1 (Q9Y2H9 whole entry, looked up): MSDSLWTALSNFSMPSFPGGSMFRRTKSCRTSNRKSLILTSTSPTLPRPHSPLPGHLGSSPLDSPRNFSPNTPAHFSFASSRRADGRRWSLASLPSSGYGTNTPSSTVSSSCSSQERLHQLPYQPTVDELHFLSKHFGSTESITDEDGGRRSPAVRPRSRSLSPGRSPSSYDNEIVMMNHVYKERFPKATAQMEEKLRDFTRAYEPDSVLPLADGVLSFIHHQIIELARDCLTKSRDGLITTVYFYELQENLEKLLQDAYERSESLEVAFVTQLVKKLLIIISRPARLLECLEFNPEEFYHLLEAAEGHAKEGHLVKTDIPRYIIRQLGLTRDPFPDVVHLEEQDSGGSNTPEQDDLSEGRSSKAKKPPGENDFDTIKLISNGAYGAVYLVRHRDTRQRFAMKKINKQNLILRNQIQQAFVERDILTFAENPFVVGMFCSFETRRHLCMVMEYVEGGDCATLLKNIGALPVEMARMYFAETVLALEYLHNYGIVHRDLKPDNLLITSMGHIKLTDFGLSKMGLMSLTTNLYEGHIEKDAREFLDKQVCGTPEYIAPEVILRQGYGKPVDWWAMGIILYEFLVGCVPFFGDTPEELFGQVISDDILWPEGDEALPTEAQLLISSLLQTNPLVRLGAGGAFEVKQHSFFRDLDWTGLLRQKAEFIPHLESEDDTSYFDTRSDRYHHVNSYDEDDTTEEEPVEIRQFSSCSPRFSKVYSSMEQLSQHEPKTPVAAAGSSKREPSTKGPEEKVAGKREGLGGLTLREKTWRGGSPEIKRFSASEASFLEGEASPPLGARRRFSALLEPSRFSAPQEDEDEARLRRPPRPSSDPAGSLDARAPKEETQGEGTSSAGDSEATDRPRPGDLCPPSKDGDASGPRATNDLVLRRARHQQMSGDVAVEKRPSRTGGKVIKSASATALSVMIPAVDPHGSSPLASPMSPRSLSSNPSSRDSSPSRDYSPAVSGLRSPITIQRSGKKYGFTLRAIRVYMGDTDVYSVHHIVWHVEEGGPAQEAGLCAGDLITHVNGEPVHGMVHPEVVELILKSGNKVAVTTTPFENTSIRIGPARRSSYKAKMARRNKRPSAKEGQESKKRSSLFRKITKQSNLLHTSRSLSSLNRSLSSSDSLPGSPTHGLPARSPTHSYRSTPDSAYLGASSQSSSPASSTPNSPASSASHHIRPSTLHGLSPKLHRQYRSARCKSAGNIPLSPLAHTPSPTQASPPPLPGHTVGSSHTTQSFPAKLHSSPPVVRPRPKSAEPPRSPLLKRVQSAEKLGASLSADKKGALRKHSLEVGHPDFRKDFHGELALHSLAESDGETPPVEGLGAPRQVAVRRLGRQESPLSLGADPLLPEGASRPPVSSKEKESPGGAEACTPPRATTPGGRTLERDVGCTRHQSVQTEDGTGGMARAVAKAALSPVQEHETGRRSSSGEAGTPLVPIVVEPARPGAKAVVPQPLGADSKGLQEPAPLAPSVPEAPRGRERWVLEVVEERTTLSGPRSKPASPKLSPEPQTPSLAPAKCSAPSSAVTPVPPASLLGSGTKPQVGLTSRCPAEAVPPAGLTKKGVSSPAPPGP
Method in brief: as §1

PAK1 = PAK1 (UniProt Q13153); conditions: cell material: Jurkat cells
Sequence of PAK1 (Q13153 whole entry): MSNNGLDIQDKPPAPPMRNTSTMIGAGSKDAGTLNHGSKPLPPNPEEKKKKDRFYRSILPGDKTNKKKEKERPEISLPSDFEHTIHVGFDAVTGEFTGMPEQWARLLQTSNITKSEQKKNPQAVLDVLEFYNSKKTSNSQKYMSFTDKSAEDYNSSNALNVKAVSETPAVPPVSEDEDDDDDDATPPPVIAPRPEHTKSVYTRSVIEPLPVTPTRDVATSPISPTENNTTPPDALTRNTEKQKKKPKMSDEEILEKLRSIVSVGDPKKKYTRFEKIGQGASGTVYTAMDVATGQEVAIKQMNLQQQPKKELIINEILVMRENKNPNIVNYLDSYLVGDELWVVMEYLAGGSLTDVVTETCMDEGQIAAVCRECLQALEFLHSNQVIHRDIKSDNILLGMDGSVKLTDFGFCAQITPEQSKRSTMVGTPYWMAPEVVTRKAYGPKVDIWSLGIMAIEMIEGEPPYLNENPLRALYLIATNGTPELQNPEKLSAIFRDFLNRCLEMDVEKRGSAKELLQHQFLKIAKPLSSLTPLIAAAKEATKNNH
Method in brief: as §1

Sequence of RNASEL (Q05823 whole entry): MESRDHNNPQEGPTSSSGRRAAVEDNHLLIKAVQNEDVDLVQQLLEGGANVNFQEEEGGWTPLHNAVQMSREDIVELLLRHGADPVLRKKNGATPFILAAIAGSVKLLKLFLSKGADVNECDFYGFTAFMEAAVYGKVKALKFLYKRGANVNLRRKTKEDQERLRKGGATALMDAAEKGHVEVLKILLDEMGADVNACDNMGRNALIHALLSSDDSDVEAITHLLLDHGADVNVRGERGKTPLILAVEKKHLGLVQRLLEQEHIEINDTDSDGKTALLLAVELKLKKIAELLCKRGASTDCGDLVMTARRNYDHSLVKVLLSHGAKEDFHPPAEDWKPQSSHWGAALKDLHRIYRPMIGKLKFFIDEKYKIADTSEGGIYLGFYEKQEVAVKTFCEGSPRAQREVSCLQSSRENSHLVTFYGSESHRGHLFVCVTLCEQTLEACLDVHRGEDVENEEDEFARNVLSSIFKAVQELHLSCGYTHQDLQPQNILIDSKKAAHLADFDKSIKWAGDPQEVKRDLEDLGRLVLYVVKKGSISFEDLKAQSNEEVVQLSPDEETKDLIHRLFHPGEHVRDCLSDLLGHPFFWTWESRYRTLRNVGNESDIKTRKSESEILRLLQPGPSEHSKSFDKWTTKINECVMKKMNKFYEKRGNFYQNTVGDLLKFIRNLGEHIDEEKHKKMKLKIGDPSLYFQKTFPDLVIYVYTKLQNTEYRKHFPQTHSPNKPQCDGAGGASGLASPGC

| pIC50 (RAF1; cell material: Jurkat lysate) | pIC50 (PRKCH; cell material: Jurkat cells) | SMILES | pIC50 (RNASEL) | pIC50 (PBK) | pIC50 (ZAP70; cell material: Jurkat cells) | pIC50 (ZAP70; cell material: Jurkat lysate) | pIC50 (SRPK2; cell material: Jurkat cells) | pIC50 (SRPK2; cell material: Jurkat lysate) | pIC50 (RAF1; cell material: Jurkat cells) | pIC50 (UHMK1) | pIC50 (BRSK1; cell material: Jurkat cells) | pIC50 (BRSK1; cell material: Jurkat lysate) | pIC50 (PRKCH; cell material: Jurkat lysate) | pIC50 (MAST1) | pIC50 (PAK1) |
| --- | --- | --- | --- | --- | --- | --- | --- | --- | --- | --- | --- | --- | --- | --- | --- |
| < 4.52 | < 4.52 | O=C(NCCNC(=O)c1cc(Nc2cc(C3CC3)[nH]n2)nc(N2CCN(Cc3ccc(S(=O)(=O)F)cc3)CC2)n1)OC1CC/C=C/CCC1 (stereo not drawn) | < 4.52 | < 4.52 | 6.09 | < 4.52 | < 4.52 | < 4.52 | < 4.52 | < 4.52 | 6.6 | < 4.52 | < 4.52 | 4.57 | < 4.52 |
| – | – | C#CCNC(=O)c1cc(Nc2cc(C3CC3)[nH]n2)nc(N2CCN(Cc3ccc(S(=O)(=O)F)cc3)CC2)n1 | < 4.52 | < 4.52 | 6.43 | < 4.52 | < 4.52 | < 4.52 | < 4.52 | < 4.52 | 6.05 | < 4.52 | < 4.52 | 5.92 | < 4.52 |
